One may read the pIC50 as the IC50 on a negative log10 scale, so that one unit is a factor of ten.

Consider 28 compounds from US12016852B2, “Pyrrolidine glycosidase inhibitors” (Asceneuron SA, priority 2018, dated 2024).

pIC50: −log10 of the molar value.

This assay addresses T1, Human O-GlcNAcase (His-Tagged hOGA) (Homo sapiens, UniProt O60502).
T1 sequence (O60502 1-916): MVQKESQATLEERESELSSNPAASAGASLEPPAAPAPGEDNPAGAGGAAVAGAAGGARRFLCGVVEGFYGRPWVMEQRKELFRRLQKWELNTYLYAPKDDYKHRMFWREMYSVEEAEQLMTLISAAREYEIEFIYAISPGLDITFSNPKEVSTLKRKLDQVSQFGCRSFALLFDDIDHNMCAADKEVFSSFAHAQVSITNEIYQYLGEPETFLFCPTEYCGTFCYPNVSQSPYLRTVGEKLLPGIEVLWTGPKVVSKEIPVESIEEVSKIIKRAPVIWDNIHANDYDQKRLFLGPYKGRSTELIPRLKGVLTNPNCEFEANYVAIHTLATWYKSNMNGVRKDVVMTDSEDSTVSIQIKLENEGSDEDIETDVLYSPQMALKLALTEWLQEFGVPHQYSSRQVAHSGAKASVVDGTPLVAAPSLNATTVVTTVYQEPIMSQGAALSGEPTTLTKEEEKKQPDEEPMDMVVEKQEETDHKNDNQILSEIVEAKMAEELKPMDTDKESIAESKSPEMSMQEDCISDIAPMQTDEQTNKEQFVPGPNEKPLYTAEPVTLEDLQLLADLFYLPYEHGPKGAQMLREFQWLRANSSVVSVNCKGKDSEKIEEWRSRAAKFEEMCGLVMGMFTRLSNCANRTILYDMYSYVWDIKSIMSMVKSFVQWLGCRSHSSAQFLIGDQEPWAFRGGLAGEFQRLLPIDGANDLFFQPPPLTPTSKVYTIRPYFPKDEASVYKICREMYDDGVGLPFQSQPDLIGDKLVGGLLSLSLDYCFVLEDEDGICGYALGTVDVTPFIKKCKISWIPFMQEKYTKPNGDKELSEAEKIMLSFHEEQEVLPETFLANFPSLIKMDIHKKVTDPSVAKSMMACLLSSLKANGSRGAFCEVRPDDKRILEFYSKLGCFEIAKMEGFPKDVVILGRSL
The experiment in a line: Human O-GlcNAcase enzyme inhibition assay. It is filed as biochemical. Conditions: 20 nM His-Tagged hOGA, 10 μM FL-GlcNAc, McIlvaine's Buffer pH 6.5, 60 min at room temperature, fluorescence; read-out: OGA IC50. The protocol: Example B01: Human O-GlcNAcase Enzyme Inhibition Assay
5 μl of the appropriate concentration of a solution of inhibitor in Mcllvaine's Buffer (pH 6.5) in 2% DMSO (for a dose response curve calculation) is added into each well of a 384-well plate (Greiner, 781900). Then, 20 nM of His-Tagged hOGA and 10 μM of FL-GlcNAc (Fluorescein mono-beta-D-(2-deoxy-2-N-acetyl) glucopyranoside; Marker Gene Technologies Inc, M1485) were added to the 384-well plate for a final volume of 20 μl. After incubation for 60 min at room temperature, the reaction was terminated by the addition of 10 μL of stop buffer (200 mM glycine, pH 10.75). The level of fluorescence (λexc 485 nm; (λemm 520 nm) was read on a PHERAstar machine. The amount of fluorescence measured was plotted against the concentration of inhibitor to produce a sigmoidal dose response curve to calculate an IC50. All individual data was corrected by subtraction of the background (Thiamet 3 uM=100% inhibition) whilst 0.5% DMSO was considered as the control value (no inhibition).
`Cn1cc(-c2ccc(CN3CCCC3c3ccc4c(c3)OCCO4)cc2)cn1` (racemic) [Example 4, 4-(4-((2-(2,3-dihydrobenzo[b] [1,4]dioxin-6-yl)pyrrolidin-1-yl)methyl)phenyl)-1-methyl-1H-pyrazole]: the pIC50 is 6.70 to 7.30. `Cn1cc(-c2ccc(CN3CCCC3c3ccc4c(c3)OCCO4)cn2)cn1` (racemic) [Example 5, 5-((2-(2,3-dihydrobenzo[b] [1,4]dioxin-6-yl)pyrrolidin-1-yl)methyl)-2-(1-methyl-1H-pyrazol-4-yl)pyridine]: the pIC50 was 6.70 to 7.30. Consider `CS(=O)(=O)c1ccc(CN2CCCC2c2ccc3c(c2)OCCO3)cc1` (racemic) [Example 8, 2-(2,3-dihydrobenzo[b] [1,4]dioxin-6-yl)-1-(4-(methylsulfonyl)benzyl) pyrrolidine], for which the pIC50 was 6.00 to 6.70. Turning to `c1ccc(-c2ccc(CN3CCCC3c3ccc4c(c3)OCCO4)cc2)cc1` (racemic) [Example 9, 1-([1,1′-biphenyl]-4-ylmethyl)-2-(2,3-dihydrobenzo[b] [1,4]dioxin-6-yl)pyrrolidine], the pIC50 is 6.00 to 6.70.

Regarding `CS(=O)(=O)c1ccc(CN2CCCC2c2ccc3c(c2)OCC3)cc1` (racemic) [Example 10, 2-(2,3-dihydrobenzofuran-6-yl)-1-(4-(methylsulfonyl)benzyl)pyrrolidine], the pIC50 was 6.00 to 6.70. For `Cn1cc(-c2ccc(CN3CCCC3c3ccc4c(c3)OCC4)cc2)cn1` (racemic) [Example 11, 4-(4-((2-(2,3-dihydrobenzofuran-6-yl)pyrrolidin-1-yl)methyl)phenyl)-1-methyl-1H-pyrazole], the pIC50 was above 7.30.

`Cn1cc(-c2ccc(CN3CCCC3c3ccc4c(c3)OCC4)cn2)cn1` (racemic) [Example 12, 5-((2-(2,3-dihydrobenzofuran-6-yl)pyrrolidin-1-yl)methyl)-2-(1-methyl-1H-pyrazol-4-yl)pyridine]: the pIC50 was 6.70 to 7.30. As to `CS(=O)(=O)c1ccc(-c2ccc(CN3CCCC3c3ccc4c(c3)OCCO4)nc2)cc1` (racemic) [Example 14, 2-((2-(2,3-dihydrobenzo[b] [1,4]dioxin-6-yl)pyrrolidin-1-yl)methyl)-5-(4-(methylsulfonyl)phenyl)pyridine], the pIC50 was 6.00 to 6.70. Consider `c1cnn(-c2ccc(CN3CCCC3c3ccc4c(c3)OCCO4)cc2)c1` (racemic) [Example 16, 1-(4-((2-(2,3-dihydrobenzo[b] [1,4]dioxin-6-yl)pyrrolidin-1-yl)methyl)phenyl)-1H-pyrazole], for which the pIC50 was 6.70 to 7.30. On to `c1cnc2ccc(CN3CCCC3c3ccc4c(c3)OCCO4)cc2c1` (racemic) [Example 19, 6-((2-(2,3-dihydrobenzo[b] [1,4]dioxin-6-yl)pyrrolidin-1-yl)methyl)quinoline], for which the pIC50 was 6.00 to 6.70.

For the compound `Cn1ncc2cc(CN3CCCC3c3ccc4c(c3)OCCO4)ccc21` (racemic) [Example 20, 5-((2-(2,3-dihydrobenzo[b] [1,4]dioxin-6-yl)pyrrolidin-1-yl)methyl)-1-methyl-1H-indazole], the pIC50 is 6.00 to 6.70.

Consider `Cn1cc(-c2cccc(CN3CCCC3c3ccc4c(c3)OCCO4)c2)cn1` (racemic) [Example 21, 4-(3-((2-(2,3-dihydrobenzo[b] [1,4]dioxin-6-yl)pyrrolidin-1-yl)methyl)phenyl)-1-methyl-1H-Pyrazole], for which the pIC50 was 6.00 to 6.70. For the compound `c1ccc(-c2ccc(CN3CCCC3c3ccc4c(c3)OCC4)cc2)cc1` (racemic) [Example 22, 1-([1,1′-biphenyl]-4-ylmethyl)-2-(2,3-dihydrobenzofuran-6-yl)pyrrolidine], the pIC50 was 6.00 to 6.70. Turning to `c1cc(N2CCOCC2)ccc1CN1CCCC1c1ccc2c(c1)OCCO2` (racemic) [Example 23, 4-(4-((2-(2,3-dihydrobenzo[b] [1,4]dioxin-6-yl)pyrrolidin-1-yl)methyl)phenyl)morpholine], the pIC50 was 6.00 to 6.70. As to `c1cc(N2CCOCC2)ccc1CN1CCCC1c1ccc2c(c1)OCC2` (racemic) [Example 24, 4-(4-((2-(2,3-dihydrobenzofuran-6-yl)pyrrolidin-1-yl)methyl)phenyl)morpholine], the pIC50 is 6.00 to 6.70. For `c1ccc2ncc(CN3CCCC3c3ccc4c(c3)OCCO4)cc2c1` (racemic) [Example 26, 3-((2-(2,3-dihydrobenzo[b] [1,4]dioxin-6-yl)pyrrolidin-1-yl)methyl)quinoline], the pIC50 was 6.00 to 6.70. On to `c1cc(N2CCSCC2)ccc1CN1CCCC1c1ccc2c(c1)OCCO2` (racemic) [Example 28, 4-(4-((2-(2,3-dihydrobenzo[b] [1,4]dioxin-6-yl)pyrrolidin-1-yl)methyl) Phenyl) thiomorpholine], for which the pIC50 was 6.00 to 6.70.

Take `c1ccc(-c2ccc(CN3CCCC3c3ccc4c(c3)OCCO4)cc2)nc1` (racemic) [Example 29, 2-(4-((2-(2,3-dihydrobenzo[b] [1,4]dioxin-6-yl)pyrrolidin-1-yl)methyl)phenyl)pyridine]: the pIC50 is 6.00 to 6.70. Take `c1cncc(-c2ccc(CN3CCCC3c3ccc4c(c3)OCCO4)cc2)c1` (racemic) [Example 30, 3-(4-((2-(2,3-dihydrobenzo[b] [1,4]dioxin-6-yl)pyrrolidin-1-yl)methyl)phenyl) pyridine]: the pIC50 is 6.70 to 7.30. As for `Clc1cc(-c2cccnc2)ccc1CN1CCCC1c1ccc2c(c1)OCCO2` (racemic) [Example 31, 3-(3-chloro-4-((2-(2,3-dihydrobenzo[b] [1,4]dioxin-6-yl)pyrrolidin-1-yl)methyl)phenyl)pyridine], the pIC50 is 6.00 to 6.70. For `Fc1cc(-c2cccnc2)ccc1CN1CCCC1c1ccc2c(c1)OCCO2` (racemic) [Example 32, 3-(4-((2-(2,3-dihydrobenzo[b] [1,4]dioxin-6-yl)pyrrolidin-1-yl)methyl)-3-fluorophenyl)pyridine], the pIC50 was 6.70 to 7.30. As to `c1ncn(-c2ccc(CN3CCCC3c3ccc4c(c3)OCCO4)cc2)n1` (racemic) [Example 34, 1-(4-((2-(2,3-dihydrobenzo[b] [1,4]dioxin-6-yl)pyrrolidin-1-yl)methyl)phenyl)-1H-1,2,4-triazole], the pIC50 was 6.70 to 7.30.

With `c1cnc(N2CCC(CN3CCCC3c3ccc4c(c3)OCCO4)CC2)nc1` (racemic) [Example 35, 2-(4-((2-(2,3-dihydrobenzo[b] [1,4]dioxin-6-yl)pyrrolidin-1-yl)methyl)piperidin-1-yl)pyrimidine], the pIC50 was 6.00 to 6.70. The figure for `CS(=O)(=O)N1CCN(c2ccc(CN3CCCC3c3ccc4c(c3)OCCO4)cc2)CC1` (racemic) [Example 36, 1-(4-((2-(2,3-dihydrobenzo[b] [1,4]dioxin-6-yl)pyrrolidin-1-yl)methyl)phenyl)-4-(methylsulfonyl)piperazine] is 6.00 to 6.70; for `CC(=O)N1CCN(c2ccc(CN3CCCC3c3ccc4c(c3)OCCO4)cc2)CC1` (racemic) [Example 37, 1-(4-(4-((2-(2,3-dihydrobenzo[b] [1,4]dioxin-6-yl)pyrrolidin-1-yl)methyl)phenyl)piperazin-1-yl)ethan-1-one] it is 6.00 to 6.70; for `Cc1cc(-c2cccnc2)ccc1CN1CCCC1c1ccc2c(c1)OCCO2` (racemic) [Example 38, 3-(4-((2-(2,3-dihydrobenzo[b] [1,4]dioxin-6-yl)pyrrolidin-1-yl)methyl)-3-methylphenyl)pyridine] it is 6.70 to 7.30. Turning to `c1ncc(-c2ccc(CN3CCCC3c3ccc4c(c3)OCCO4)cc2)cn1` (racemic) [Example 39, 5-(4-((2-(2,3-dihydrobenzo[b] [1,4]dioxin-6-yl)pyrrolidin-1-yl)methyl)phenyl)pyrimidine], the pIC50 was 6.70 to 7.30. The value for `Fc1cc(-c2ccccn2)ccc1CN1CCCC1c1ccc2c(c1)OCCO2` (racemic) [Example 41, 2-(4-((2-(2,3-dihydrobenzo[b] [1,4]dioxin-6-yl)pyrrolidin-1-yl)methyl)-3-fluorophenyl)pyridine] was 6.00 to 6.70.
